Assays:
[1] = tested on: Human prostate cancer (PC-3M); test: Inhibition of NLKJ softgels on the growth of human prostate cancer in an animal model (Experiment Example 1); assay type: in vivo; conditions: 100 mg/kg, ip × 3 (d 1, 5, 9); 21th day after inoculation
Method: Inhibition of NLKJ Softgels on the Growth of Human Prostate Cancer in an Animal Model
NLKJ softgels (NLKJ for injection), Batch No. 20010412;
Kanglaite Injection (Product of Zhejiang Kanglaite Pharmaceutical Co. LTD, containing NLKJ 10 g/100 ml), Batch No. 0011281-1.
Grafting Tumor: Human prostate cancer (PC-3M), subcultured by Pharmacological Department, Shanghai Institute of Pharmaceutical Industry.
1) Control Group (Normal saline);
2) NLKJ softgel (5 ml/kg, p.o.×10 d);
3) NLKJ softgel (10 ml/kg, p.o.×10 d);
4) Kanglaite Injection (25 ml/kg, i.v.×10 d);
5) Cyclophamide (CTX) (100 mg/kg, ip.×3 (d1, d5, d9)).
(§1) The treatment started from the second day after inoculation. […] The weights of tumors were compared among the groups. The result was judged based on the formula: […]
IR: Inhibition Rate of Tumor; Xcon: Average weight of tumors of the control group; Xtreat: Average weight of tumors of the treatment group.

[2] = Body weight of tumor-bearing nude mice (Experiment Example 1); assay type: in vivo, BALB/C nude mice; conditions: 100 mg/kg, ip × 3 (d 1, 5, 9)
Excerpt: as §1

[3] = tested on: Human prostate cancer (PC-3M); test: Inhibition of NLKJ softgels in combination with Lupron on the growth of human prostate cancer in animal models (Experiment Example 2); assay type: in vivo; conditions: sc × 1, 21th day after inoculation
Excerpt: Inhibition of NLKJ Softgels in Combination with Lupron on the Growth of Human Prostate Cancer in Animal Models […] for injection), Batch No. 011209; Lupron (Takeda Chemical Industries, Ltd., Osaka, Japan 541), Batch No. 47978 AP. […] Grafting Tumor: Human prostate cancer (PC-3M), subcultured by Pharmacological Department, Shanghai Institute of Pharmaceutical Industry. […] The weights of tumors were compared among the groups.

SMILES	Inhibition Rate(%) [1]	Tumor Weight(g) (x ± SD) [1]	Body weight (g) Beg ([2]; beginning)	Body weight (g) End ([2]; end)	Inhibition Rate(%) ([3]; 0.75 mg/kg)	Tumor Weight(g) (x ± SD) ([3]; 0.75 mg/kg)	Inhibition Rate(%) ([3]; 1.50 mg/kg)	Tumor Weight(g) (x ± SD) ([3]; 1.50 mg/kg)
O=P1(N(CCCl)CCCl)NCCCO1 (centres unmarked) [CTX, Cyclophamide]	92.47%	0.12 ± 0.04 g	17.0 g	17.8 g	–	–	–	–
CCNC(=O)[C@@H]1CCCN1C(=O)[C@H](CCCNC(=N)N)NC(=O)[C@H](CC(C)C)NC(=O)[C@@H](CC(C)C)NC(=O)[C@H](Cc1ccc(O)cc1)NC(=O)[C@H](CO)NC(=O)[C@H](Cc1c[nH]c2ccccc12)NC(=O)[C@H](Cc1c[nH]cn1)NC(=O)[C@@H]1CCC(=O)N1 [Lupron, leuprolide acetate]	–	–	–	–	37.08%	0.93 ± 0.23 g	48.31%	0.77 ± 0.14 g

Source: patent US9492493B2, “Softgel of NLKJ for treating prostate diseases” (priority 2003, dated 2016)
